Target: T1, IL-17A/A (Homo sapiens, UniProt Q16552)
T1 construct: purchased Genscript Z03228
T1 sequence (Q16552 24-155): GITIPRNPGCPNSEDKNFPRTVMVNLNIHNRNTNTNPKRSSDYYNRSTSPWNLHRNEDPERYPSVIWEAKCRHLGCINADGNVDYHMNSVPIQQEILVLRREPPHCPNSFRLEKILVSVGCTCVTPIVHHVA
Experiment: HEK-Blue IL-17A/A inhibition assay (SEAP reporter)
Assay type: cell-based
Conditions: HEK-Blue cells (HEK 293 expressing IL-17RA, IL-17RC, Act1); IL-17A/A stimulation; 20 hours; SEAP read at A630; 4-parameter fit
Procedure, shortened: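 IC50 from a 4-parameter fit of SEAP signal (Quanti-Blue, A630) after 20 h co-incubation of compound and IL-17A/A. Reporter line: HEK 293 expressing IL-17RA, IL-17RC and Act1 with NFκB-SEAP; compound top final 10, 1 or 0.3 uM, DMSO 0.1% final.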

Row | IC50 | SMILES
1 | 100 to 1000 nM | CC(C)n1nccc1C(=O)N[C@H](C(=O)Nc1cc(CN(C)C)c([C@H](C)C(=O)NCC(F)(F)F)cc1F)C(C1CC1)C1CC1 [Compound 165, N-((S)-1,1-dicyclopropyl-3-((5-((dimethylamino)methyl)-2-fluoro-4-((S)-1-oxo-1-((2,2,2-trifluoroethyl)amino)propan-2-yl)phenyl)amino)-3-oxopropan-2-yl)-1-isopropyl-1H-pyrazole-5-carboxamide]
2 | 100 to 1000 nM | CC(C)n1nccc1C(=O)N[C@H](C(=O)Nc1cc(CCN(C)C)c([C@H](C)C(=O)NCC(F)(F)F)cc1F)C(C1CC1)C1CC1 [Compound 166, N-((S)-1,1-dicyclopropyl-3-((5-(2-(dimethylamino)ethyl)-2-fluoro-4-((S)-1-oxo-1-((2,2,2-trifluoroethyl)amino)propan-2-yl)phenyl)amino)-3-oxopropan-2-yl)-1-isopropyl-1H-pyrazole-5-carboxamide]
3 | 100 to 1000 nM | CC(C)n1nccc1C(=O)N[C@H](C(=O)Nc1ccc(C(CO)C(=O)NCC(F)(F)F)cc1F)C(C1CC1)C1CC1 (stereo partly drawn) [Compound 168, N-((2S)-1.1-dicyclopropyl-3-((2-fluoro-4-(3-hydroay-1-oxo-11-((2,2,2-trifluoroethyl)amino)propan-2-yl)phenyl)amino)-3-oxopropan-2-yl)-1-isopropyl-1H-pyrazole-5-carboxamide]
4 | < 100 nM | CC(C(=O)NCC(F)(F)F)c1cc(F)c(NC(=O)[C@@H](NC(=O)c2ccnn2C(C)C)C(C2CC2)C2CC2)cc1C(F)(F)F (stereo partly drawn) [Compound 169]
5 | < 100 nM | CCn1nccc1C(=O)N[C@H](C(=O)Nc1cc(OC)c(C(C)C(=O)N(C)CC(F)(F)F)cc1F)C(C1CC1)C1CC1 (stereo partly drawn) [Compound 174]
6 | 100 to 1000 nM | CCC(c1ccc(F)cc1)[C@H](NC(=O)c1ccnn1C(C)C)C(=O)Nc1cc(OC)c(C(C)C(=O)NCC(F)(F)F)cc1F (stereo partly drawn) [Compound 175]
7 | < 100 nM | COc1cc(NC(=O)[C@@H](NC(=O)c2ccnn2C(C)C)C(C2CC2)C2CC2)c(F)cc1C(C)C(=O)N(C)CC(F)(F)F (stereo partly drawn) [Compound 176]
8 | 100 to 1000 nM | CC[C@@H](c1ccc(F)cc1)[C@H](NC(=O)c1ccnn1C(C)C)C(=O)Nc1cc(OC)c(C(C)C(=O)NCC(F)(F)F)cc1F (stereo partly drawn) [Compound 177]
9 | 100 to 1000 nM | Cc1cc(NC(=O)[C@@H](NC(=O)c2ccnn2C(C)C)C(C2CC2)C2CC2)c(F)cc1C(C)C(=O)NC(C(N)=O)C(F)(F)F (stereo partly drawn) [Compound 178]
10 | < 100 nM | COc1cc(NC(=O)[C@@H](NC(=O)c2ccnn2C)C(C2CC2)C2CC2)c(F)cc1C(C)C(=O)N(C)CC(F)(F)F (stereo partly drawn) [Compound 179]
11 | < 100 nM | Cc1cc(NC(=O)C(NC(=O)c2ccnn2C(C)C)C(C2CC2)C2CC2)c(F)cc1C(C)C(=O)N1CC(C)OCC1C(F)(F)F (stereo not drawn) [Compound 184]
12 | 100 to 1000 nM | CC(C(=O)NCC(F)(F)F)c1cc(F)c(NC(=O)[C@@H](NC(=O)c2ccnn2C(C)C)C(C2CC2)C2CC2)cc1N1CCCC1=O (stereo partly drawn) [Compound 187]
13 | < 100 nM | CC(C(=O)NCC(F)(F)F)c1cc(F)c(NC(=O)[C@@H](NC(=O)c2ccnn2C(C)C)C(C2CC2)C2CC2)cc1N1CCOCC1 (stereo partly drawn) [Compound 188]
14 | > 1000 nM | CC(=O)NC(C(=O)NCC(F)(F)F)c1ccc(NC(=O)[C@@H](NC(=O)c2ccnn2C(C)C)C(C2CC2)C2CC2)c(F)c1 (stereo partly drawn) [Compound 190]
15 | < 100 nM | CCC(C(=O)N(C)CC(F)(F)F)c1ccc(NC(=O)[C@@H](NC(=O)c2ccnn2C(C)C)C(C2CC2)C2CC2)c(F)c1 (stereo partly drawn) [Compound 192]
16 | > 1000 nM | CC(C)n1nccc1C(=O)N[C@H](C(=O)Nc1ccc(C(CO)C(=O)NCC(F)(F)F)cc1F)C(C1CC1)C1CC1 (stereo partly drawn) [Compound 193]
17 | 100 to 1000 nM | CCOc1cc(NC(=O)[C@@H](NC(=O)c2ccnn2C(C)C)C(C2CC2)C2CC2)c(F)cc1C(C)C(=O)NCC(F)(F)F (stereo partly drawn) [Compound 194]
18 | < 100 nM | CCOc1cc(NC(=O)[C@@H](NC(=O)c2ccnn2C(C)C)C(C2CC2)C2CC2)c(F)cc1C(C)C(=O)N(C)CC(F)(F)F (stereo partly drawn) [Compound 195]
19 | > 1000 nM | CNc1cc(NC(=O)[C@@H](NC(=O)c2ccnn2C(C)C)C(C2CC2)C2CC2)c(F)cc1C(C)C(=O)NCC(F)(F)F (stereo partly drawn) [Compound 196]
20 | > 1000 nM | Cc1cc(NC(=O)[C@@H](NC(=O)c2nonc2C)C2CCC(F)(F)CC2)c(F)cc1C(C)C(=O)NCC(F)(F)F (stereo partly drawn) [Compound 197]

Row | IC50 | SMILES
21 | 100 to 1000 nM | Cc1cc(NC(=O)[C@@H](NC(=O)c2nonc2C)C2CCC(F)(F)CC2)c(F)cc1C(C)C(=O)N(C)CC(F)(F)F (stereo partly drawn) [Compound 198]
22 | > 1000 nM | CCn1nccc1C(=O)N[C@H](C(=O)Nc1cc(C)c(C(C)C(=O)NCC(F)(F)F)cc1F)[C@H]1CC[C@H](C)CC1 (stereo partly drawn) [Compound 201]
23 | < 100 nM | CCn1nccc1C(=O)N[C@H](C(=O)Nc1cc(C)c(C(C)C(=O)N(C)CC(F)(F)F)cc1F)[C@H]1CC[C@H](C)CC1 (stereo partly drawn) [Compound 202]
24 | < 100 nM | CC[C@@H](c1ccc(F)cc1)[C@H](NC(=O)c1ccnn1CC)C(=O)Nc1cc(C)c(C(C)C(=O)N(C)CC(F)(F)F)cc1F (stereo partly drawn) [Compound 203]
25 | 100 to 1000 nM | CC(C(=O)N1CC(C#N)CCC1C(F)(F)F)c1ccc(NC(=O)[C@@H](NC(=O)c2ccnn2C(C)C)C(C2CC2)C2CC2)c(F)c1 (stereo partly drawn) [Compound 204]
26 | < 100 nM | CCc1nonc1C(=O)N[C@H](C(=O)Nc1cc(C)c(C(C)C(=O)N(C)CC(F)(F)F)cc1F)C(C1CC1)C1CC1 (stereo partly drawn) [Compound 205]
27 | 100 to 1000 nM | CCc1nonc1C(=O)N[C@H](C(=O)Nc1cc(C)c(C(C)C(=O)NCC(F)(F)F)cc1F)C(C1CC1)C1CC1 (stereo partly drawn) [Compound 206]
28 | < 100 nM | Cc1cc(NC(=O)[C@@H](NC(=O)c2ccnn2C(C)C)C2CCC(F)(F)CC2)c(F)cc1C(C)C(=O)N(C)CC(F)(F)F (stereo partly drawn) [Compound 207]
29 | < 100 nM | Cc1cc(NC(=O)[C@@H](NC(=O)c2ccnn2C(C)C)C(C2CC2)C2CC2)c(F)cc1C(C)C(=O)N(C)CC(F)(F)F (stereo partly drawn) [Compound 208]
30 | < 100 nM | Cc1cc(NC(=O)[C@@H](NC(=O)c2ccnn2C(C)C)C(C2CC2)C2CC2)c(F)cc1C(C)C(=O)NC(C1CCOC1)C(F)(F)F (stereo partly drawn) [Compound 209]
31 | 100 to 1000 nM | Cc1cc(NC(=O)[C@@H](NC(=O)c2nonc2C)C(C2CC2)C2CC2)c(F)cc1C(C)C(=O)NCC(F)(F)F (stereo partly drawn) [Compound 210]
32 | < 100 nM | Cc1cc(NC(=O)[C@@H](NC(=O)c2nonc2C)C(C2CC2)C2CC2)c(F)cc1C(C)C(=O)N(C)CC(F)(F)F (stereo partly drawn) [Compound 211]
33 | > 1000 nM | CC(C(=O)NCC(F)(F)F)c1cc(F)c(NC(=O)[C@@H](NC(=O)c2ccnn2C(C)C)C(C2CC2)C2CC2)cc1N(C)C (stereo partly drawn) [Compound 214]
34 | > 1000 nM | Cc1cc(NC(=O)[C@@H](NC(=O)c2ccnn2C)C2CCC(F)(F)CC2)c(F)cc1C(C)C(=O)NCC(F)(F)F (stereo partly drawn) [Compound 215]
35 | 100 to 1000 nM | Cc1cc(NC(=O)[C@@H](NC(=O)c2ccnn2C)C2CCC(F)(F)CC2)c(F)cc1C(C)C(=O)N(C)CC(F)(F)F (stereo partly drawn) [Compound 216]
36 | > 1000 nM | CCn1nccc1C(=O)N[C@H](C(=O)Nc1cc(C)c(C(C)C(=O)NCC(F)(F)F)cc1F)C1CCC(F)(F)CC1 (stereo partly drawn) [Compound 217]
37 | < 100 nM | CCn1nccc1C(=O)N[C@H](C(=O)Nc1cc(C)c(C(C)C(=O)N(C)CC(F)(F)F)cc1F)C1CCC(F)(F)CC1 (stereo partly drawn) [Compound 218]
38 | 100 to 1000 nM | CCn1nccc1C(=O)N[C@H](C(=O)Nc1ccc(C(C)C(=O)N2CCC(C(F)(F)F)C2)cc1F)C(C1CC1)C1CC1 (stereo partly drawn) [Compound 221]
39 | > 1000 nM | Cc1cc(NC(=O)[C@@H](NC(=O)c2ccnn2C)C(C2CC2)C2CC2)c(F)cc1C(C)C(=O)NCC(F)(F)F (stereo partly drawn) [Compound 222]

From patent publication US20240376056A1, “PHENYL ACETAMIDE BASED IL-17A MODULATORS AND USES THEREOF” (DiCE Alpha, Inc., priority 2021, published 2024)
